What was measured:
CD8+ T Cells = test: Immune cell activation in PBMC cultures, flow cytometry: CD8+ T cells; type: cell-based, human; details: 2 days; for CD8+ T Cells CD25 Fold / CD8+ T Cells CD28 Fold / CD8+ T Cells CD38 Fold / CD8+ T Cells CD69 Fold / CD8+ T Cells CD25 % / CD8+ T Cells CD28 % / CD8+ T Cells CD69 %: N = 6
Procedure: TLR8 is expressed on multiple immune cell subsets. To determine how treatment with a TLR8 modulating compound affects activation of distinct cell populations, PBMCs were purified from HIV-1 infected subjects on cART, as described in Example 121 (anonymized participant IDs 184, 185, 188, 189, 190, and 191). […] After incubation, PBMCs were harvested and stained with antibodies conjugated to specific fluorophores (BD Biosciences) to delineate immune cell subsets: CD4 T cells (CD3+CD4+CD8−), CD8 T cells (CD3+CD8+CD4−), NK cells (CD3−CD56+CD16+), monocytes (CD3−CD14+), B cells (CD3−CD19+), and peripheral dendritic cells (DCs), defined as positive for HLA-DR and negative for a panel of markers: CD3, CD14, CD16, CD19, CD20, CD56 (Lin-1 lineage panel, BD Biosciences).
Additional markers of activation, maturation, and effector function were included for cell subsets, as follows: CD4 and CD8 T cells (CD25, CD38, CD69, IFN-γ, granzyme B, perforin, TNF-α), NK cells (CD25, CD69, IFN-γ), monocytes (CD11c, CD16, CD80, CD86, CD163, TNF-α), B cells (CD40, CD69, CD80, CD86), and DC (CD11c, CD69, CD80, CD86, CD123, and CD163). Cells were stained for surface markers (CD3, CD4, CD8, CD11c, CD14, CD16, CD25, CD69, CD80, CD86, CD163), washed, treated with fixation and permeabilization buffer (eBioscience), and stained for intracellular markers (IFN-γ, granzyme B, perforin, TNF-α). Cells were evaluated by flow cytometry on a LSR Fortessa (BD Biosciences), and data was analyzed with FlowJo software (TreeStar).
Data are expressed as geometric mean percentage (%) and as geometric mean fold-activation (Fold) for each marker and for each PBMC subset obtained from 4 or 6 subjects, as indicated. Fold activation is calculated as a ratio of the % positive for each marker for each PBMC subset at the indicated concentration of the compound of Example 15 relative to % positive for DMSO treated samples. Fold activations that are 1.5 are in bold.

HIV-infected CD4 T cells = test: PGT121 antibody-mediated killing of HIV-infected CD4 T cells, monocyte effector model; type: cell-based, human; details: monocytes from 1 subject pre-treated 1 day with 11 or 33 nM
From the text: NK cells and monocytes mediate antibody-dependent cellular cytotoxicity (ADCC) and antibody-dependent cellular phagocytosis (ADCP) respectively. To assess the ability of the compound of Example 15 to enhance ADCC and ADCP, two models were developed using monocytes or PBMCs as effector cells and HIV-infected CD4 T cells as target cells. PBMCs were isolated from 3 healthy subjects' leukaphereses (AlICells, participant IDs A4593, A4596, A4606), as described above. CD4 T cells were isolated from PBMCs using negative selection magnetic beads (EasySep, StemCell Technologies). CD4 T cells were spinfected with HIV-1 isolate 92HT593 (NIH AIDS Reagent Program) and cultured for 5 days at 37° C. For the PBMC model, autologous PBMCs were cultured for 5 days with vehicle control (DMSO) or Example 15 at 100 or 1000 nM. […] Marker staining was measured by flow cytometry using a LSR Fortessa (BD Biosciences) and analyzed with FlowJo software (TreeStar). The percent killing was determined by calculating the reduction of p24+CD4+ T cells mediated by PGT121 antibody relative to a no antibody control.
PBMCs (FIG. 3) or monocytes (FIG. 4) were treated with DMSO or TLR8 agonist for 5 days (FIG. 3) or 1 day (FIG. 4) and then co-cultured for 1 day with autologous HIV-infected CD4 T cells−/+anti-HIV Env antibody PGT121. Reductions in %p24+ CD4+ T cells, relative to no antibody control, were measured by FACS. […]

CCCC[C@H](CO)Nc1nc(N)nc2cccnc12 [Example 15] was tested, and the “CD8+ T Cells CD25 Fold” value (CD8+ T Cells; 10 nM vs DMSO) was 0.6 fold, the “CD8+ T Cells CD28 Fold” value (CD8+ T Cells; 10 nM vs DMSO) was 0.9 fold and the “CD8+ T Cells CD38 Fold” value (CD8+ T Cells; 10 nM vs DMSO) was 0.9 fold. The “CD8+ T Cells CD69 Fold” value (CD8+ T Cells; 10 nM vs DMSO) was 0.8 fold, the “CD8+ T Cells CD25 %” value (CD8+ T Cells; 10 nM) was 0.2% and the “CD8+ T Cells CD28 %” value (CD8+ T Cells; 10 nM) was 0.1%. For the same compound, the “CD8+ T Cells CD69 %” value (CD8+ T Cells; 10 nM) was 3.7%, the “CD8+ T Cells CD25 Fold” value (CD8+ T Cells; 100 nM vs DMSO) was 1.0 fold and the “CD8+ T Cells CD28 Fold” value (CD8+ T Cells; 100 nM vs DMSO) was 1.1 fold. For the same compound, the “CD8+ T Cells CD38 Fold” value (CD8+ T Cells; 100 nM vs DMSO) was 1.0 fold, the “CD8+ T Cells CD69 Fold” value (CD8+ T Cells; 100 nM vs DMSO) was 0.7 fold and the “CD8+ T Cells CD25 %” value (CD8+ T Cells; 100 nM) was 0.3%. The “CD8+ T Cells CD28 %” value (CD8+ T Cells; 100 nM) was 0.1%, the “CD8+ T Cells CD69 %” value (CD8+ T Cells; 100 nM) was 3.4% and the “CD8+ T Cells CD25 Fold” value (CD8+ T Cells; 1000 nM vs DMSO) was 2.2 fold. For the same compound, the “CD8+ T Cells CD28 Fold” value (CD8+ T Cells; 1000 nM vs DMSO) was 4.4 fold, the “CD8+ T Cells CD38 Fold” value (CD8+ T Cells; 1000 nM vs DMSO) was 2.0 fold and the “CD8+ T Cells CD69 Fold” value (CD8+ T Cells; 1000 nM vs DMSO) was 2.2 fold. The “CD8+ T Cells CD25 %” value (CD8+ T Cells; 1000 nM) was 0.7%, the “CD8+ T Cells CD28 %” value (CD8+ T Cells; 1000 nM) was 0.4% and the “CD8+ T Cells CD25 Fold” value (CD8+ T Cells; 3000 nM vs DMSO) was 3.0 fold. The “CD8+ T Cells CD28 Fold” value (CD8+ T Cells; 3000 nM vs DMSO) was 4.7 fold, the “CD8+ T Cells CD38 Fold” value (CD8+ T Cells; 3000 nM vs DMSO) was 2.0 fold and the “CD8+ T Cells CD69 Fold” value (CD8+ T Cells; 3000 nM vs DMSO) was 2.5 fold. The “CD8+ T Cells CD25 %” value (CD8+ T Cells; 3000 nM) was 0.9%, the “CD8+ T Cells CD28 %” value (CD8+ T Cells; 3000 nM) was 0.5% and the “Perforin in CD8+ T cells” value (CD8+ T Cells; Example 15 treatment) was “did not increase”. The “PGT121-mediated killing of HIV-infected CD4+ T cells compared to DMSO control” value (HIV-infected CD4 T cells) was “markedly enhanced”.

Source: patent publication US20180263985A1, “MODULATORS OF TOLL-LIKE RECEPTORS FOR THE TREATMENT OF HIV” (Gilead Sciences, Inc., priority 2015, published 2018)
